Experimental data reported in US20240067693A1, “POLYPEPTIDES AND USES THEREOF” (MEDIMMUNE LIMITED, priority 2020, published 2024).
Numbered stars: 1 amine (or outer) side, 2 acyl side, 3 side chain; on linkers, the order of the positions; unused ones are H or OH. Bridge positions count the residues as written; N and C are the ends. Square brackets hold non-standard residues; d marks the D form. Side chains are listed from the residue outwards. Peptide text beside a SMILES is read from it. * marks the point of attachment. C18 diacid = O=C(O)CCCCCCCCCCCCCCCCC(=O)*; γGlu = O=C(O)[C@H](CCC(=O)[*:2])N[*:1]; αMeF = C[C@](N)(Cc1ccccc1)C(=O)O; Aib = CC(C)(N)C(=O)O

Legend:
[1] = tested on: lean rats; assay: Rat acute food intake study; format: in vivo; conditions: lean male Sprague Dawley rats, 20 nmol/kg subcutaneously
Outline: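 Male Sprague Dawley rats (n=7/group), fasted 6 h, received 20 nmol/kg test compound or 60 nmol/kg pramlintide subcutaneously 30 min before food return at dark onset. Food intake recorded automatically in home cages over 3 days, binned hourly and analysed as cumulative dark-period intake; body weight taken daily.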

[2] = Thioflavin T fibrillation assay; format: physicochemical; conditions: ThT fibrillation assay; peptide 1 mg/mL in 25 mM sodium acetate buffer pH 4.0; 6 days at 37 °C with shaking; >144 h = no increase
Outline: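 Peptides at 1 mg/mL in 25 mM sodium acetate pH 4.0 with ThT (from 0.25 mM stock), incubated 6 days at 37 °C with intermittent orbital shaking at 500–750 rpm. Fluorescence (ex 444/em 480 nm) read every 30 min; value is average time to a rise in baseline-corrected signal.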

[3] = biological target: T1, rat amylin receptor (calcitonin receptor co-expressed with receptor activity modifying protein, RAMP3) (Rat AMYR3) (Rattus norvegicus, UniProt P32214+Q9JJ73); assay: cAMP production in HEK cells with stable recombinant expression of rat amylin receptor (Rat AMYR3); format: cell-based; conditions: assay buffer with 0.1% BSA
T1 construct: expressed in transfected cells
T1 sequence (P32214 25-516): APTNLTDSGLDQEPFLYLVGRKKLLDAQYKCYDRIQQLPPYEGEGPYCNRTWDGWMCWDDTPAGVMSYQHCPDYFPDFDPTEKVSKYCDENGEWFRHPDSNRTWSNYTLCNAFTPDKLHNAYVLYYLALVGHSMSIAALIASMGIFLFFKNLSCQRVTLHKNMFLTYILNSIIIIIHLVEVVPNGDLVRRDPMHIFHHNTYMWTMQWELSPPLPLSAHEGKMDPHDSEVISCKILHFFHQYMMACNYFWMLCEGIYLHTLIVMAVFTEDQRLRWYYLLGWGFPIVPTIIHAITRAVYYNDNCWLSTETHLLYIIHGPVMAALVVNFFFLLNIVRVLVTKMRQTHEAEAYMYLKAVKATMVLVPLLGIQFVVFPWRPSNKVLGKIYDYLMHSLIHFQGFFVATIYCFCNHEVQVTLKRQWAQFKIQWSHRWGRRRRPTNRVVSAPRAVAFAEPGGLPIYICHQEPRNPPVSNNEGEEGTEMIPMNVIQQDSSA
T1 sequence (Q9JJ73 23-147 partner): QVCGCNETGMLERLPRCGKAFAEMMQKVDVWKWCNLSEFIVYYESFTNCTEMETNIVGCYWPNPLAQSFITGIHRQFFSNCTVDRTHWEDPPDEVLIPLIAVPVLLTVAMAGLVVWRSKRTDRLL
Outline: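 Receptor-expressing cells (human receptors in 1321N1, rat receptors in HEK) incubated 30 min at room temperature with peptide in HBSS/HEPES pH 7.4, 0.1% BSA, 0.5 mM IBMX. cAMP read by HTRF; EC50 from 4-parameter fit as % of maximal amylin or calcitonin response.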

SMILES | Cummulative food intake (% vehicle treated intake) At 12 h [1] [% vehicle treated intake] | Cummulative food intake (% vehicle treated intake) At 24 h [1] [% vehicle treated intake] | Cummulative food intake (% vehicle treated intake) At 48 h [1] [% vehicle treated intake] | Time taken to detect increase in fluorescence intensity [2] [h] | EC50 [3] [pM]
CC[C@H](C)[C@H](NC(=O)[C@@H]1CCCN1C(=O)CNC(=O)[C@](C)(Cc1ccccc1)NC(=O)[C@H](CC(N)=O)NC(=O)[C@H](CC(N)=O)NC(=O)[C@H](CO)NC(=O)[C@H](CO)NC(=O)[C@H](Cc1c[nH]cn1)NC(=O)[C@@H](NC(=O)[C@H](CC(C)C)NC(=O)[C@H](Cc1ccccc1)NC(=O)[C@H](CC(N)=O)NC(=O)[C@H](C)NC(=O)[C@H](CC(C)C)NC(=O)[C@H](CCCNC(=N)N)NC(=O)[C@H](CCC(N)=O)NC(=O)[C@@H](NC(=O)[C@H](C)NC(=O)[C@@H]1CSSC[C@H](NC(=O)[C@@H](N)CCCCNC(=O)CC[C@H](NC(=O)CC[C@H](NC(=O)CCCCCCCCCCCCCCCCC(=O)O)C(=O)O)C(=O)O)C(=O)N[C@@H](CC(N)=O)C(=O)N[C@@H]([C@@H](C)O)C(=O)N[C@@H](C)C(=O)N[C@@H]([C@@H](C)O)C(=O)N1)[C@@H](C)O)C(C)C)C(=O)N[C@@H](CC(C)C)C(=O)N1CCC[C@H]1C(=O)N1CCC[C@H]1C(=O)N[C@H](C(=O)N[C@@H](CCCNC(=N)N)C(=O)N[C@H](C(=O)NCC(=O)N[C@@H](CO)C(=O)N[C@@H](CC(N)=O)C(=O)N[C@H](C(=O)N[C@@H](Cc1ccc(O)cc1)C(N)=O)[C@@H](C)O)C(C)C)[C@@H](C)O [Peptide 24, K(γE-γE-C18diacid)[CNTATC]ATQRLANFLVHSSNN(αMePhe)GPILPPTRVGSNTY-amide] (H-K([γGlu-γGlu-C18 diacid])CNTATCATQRLANFLVHSSNN[αMeF]GPILPPTRVGSNTY-NH2; disulfide 2-7; N-terminus assumed) | 18.7 | 19.4 | 40.6 | >144 | 17.7
CC[C@H](C)[C@H](NC(=O)[C@@H]1CCCN1C(=O)CNC(=O)[C@H](Cc1ccccc1)NC(=O)[C@H](CC(N)=O)NC(=O)C(C)(C)NC(=O)[C@H](CO)NC(=O)[C@H](CO)NC(=O)[C@H](Cc1c[nH]cn1)NC(=O)[C@@H](NC(=O)[C@H](CC(C)C)NC(=O)[C@H](Cc1ccccc1)NC(=O)[C@H](CC(N)=O)NC(=O)[C@H](C)NC(=O)[C@H](CC(C)C)NC(=O)[C@H](CCCNC(=N)N)NC(=O)[C@H](CCC(N)=O)NC(=O)[C@@H](NC(=O)[C@H](C)NC(=O)[C@@H]1CSSC[C@H](NC(=O)[C@H](CCCCN)NC(=O)[C@@H](N)CCCCNC(=O)CC[C@H](NC(=O)CCCCCCCCCCCCCCCCC(=O)O)C(=O)O)C(=O)N[C@@H](CC(N)=O)C(=O)N[C@@H]([C@@H](C)O)C(=O)N[C@@H](C)C(=O)N[C@@H]([C@@H](C)O)C(=O)N1)[C@@H](C)O)C(C)C)C(=O)N[C@@H](CC(C)C)C(=O)N1CCC[C@H]1C(=O)N1CCC[C@H]1C(=O)N[C@H](C(=O)N[C@@H](Cc1c[nH]cn1)C(=O)N[C@H](C(=O)NCC(=O)N[C@@H](CO)C(=O)N[C@@H](CC(N)=O)C(=O)N[C@H](C(=O)N[C@@H](Cc1ccc(O)cc1)C(N)=O)[C@@H](C)O)C(C)C)[C@@H](C)O [Peptide 40, K(γE-C18diacid)K[CNTATC]ATQRLANFLVHSS(Aib)NFGPILPPTHVGSNTY-amide] (H-K([γGlu-C18 diacid])KCNTATCATQRLANFLVHSS[Aib]NFGPILPPTHVGSNTY-NH2; disulfide 3-8) | 60.7 | 51.8 | 72.4 | >144 | 12
CC[C@H](C)[C@H](NC(=O)[C@@H]1CCCN1C(=O)CNC(=O)[C@H](Cc1ccccc1)NC(=O)[C@H](CC(N)=O)NC(=O)C(C)(C)NC(=O)[C@H](CO)NC(=O)[C@H](CO)NC(=O)[C@H](Cc1c[nH]cn1)NC(=O)[C@H](CCCNC(=N)N)NC(=O)[C@H](CC(C)C)NC(=O)[C@H](Cc1ccccc1)NC(=O)[C@H](CC(N)=O)NC(=O)[C@H](C)NC(=O)[C@H](CC(C)C)NC(=O)[C@H](CCCNC(=N)N)NC(=O)[C@H](CCC(N)=O)NC(=O)[C@@H](NC(=O)[C@H](C)NC(=O)[C@@H]1CSSC[C@H](NC(=O)[C@@H](N)CCCCNC(=O)CC[C@H](NC(=O)CCCCCCCCCCCCCCCCC(=O)O)C(=O)O)C(=O)N[C@@H](CC(N)=O)C(=O)N[C@@H]([C@@H](C)O)C(=O)N[C@@H](C)C(=O)N[C@@H]([C@@H](C)O)C(=O)N1)[C@@H](C)O)C(=O)N[C@@H](CC(C)C)C(=O)N1CCC[C@H]1C(=O)N1CCC[C@H]1C(=O)N[C@H](C(=O)N[C@@H](CCC(=O)O)C(=O)N[C@H](C(=O)NCC(=O)N[C@@H](CO)C(=O)N[C@@H](CC(N)=O)C(=O)N[C@H](C(=O)N[C@@H](Cc1ccc(O)cc1)C(N)=O)[C@@H](C)O)C(C)C)[C@@H](C)O [Peptide 44, K(γE-C18diacid)[CNTATC]ATQRLANFLRHSS(Aib)NFGPILPPTEVGSNTY-amide] (H-K([γGlu-C18 diacid])CNTATCATQRLANFLRHSS[Aib]NFGPILPPTEVGSNTY-NH2; disulfide 2-7; N-terminus assumed) | 33.5 | 39.2 | 60.7 | >144 | 18.5
CC[C@H](C)[C@H](NC(=O)[C@@H]1CCCN1C(=O)CNC(=O)[C@H](Cc1ccccc1)NC(=O)[C@H](CC(N)=O)NC(=O)C(C)(C)NC(=O)[C@H](CO)NC(=O)[C@H](CO)NC(=O)[C@H](Cc1c[nH]cn1)NC(=O)[C@H](CCCNC(=N)N)NC(=O)[C@H](CC(C)C)NC(=O)[C@H](Cc1ccccc1)NC(=O)[C@H](CC(N)=O)NC(=O)[C@H](C)NC(=O)[C@H](CC(C)C)NC(=O)[C@H](CCCNC(=N)N)NC(=O)[C@H](CCC(N)=O)NC(=O)[C@@H](NC(=O)[C@H](C)NC(=O)[C@@H]1CSSC[C@H](NC(=O)[C@@H](N)CCCCNC(=O)CC[C@H](NC(=O)CCCCCCCCCCCCCCCCC(=O)O)C(=O)O)C(=O)N[C@@H](CC(N)=O)C(=O)N[C@@H]([C@@H](C)O)C(=O)N[C@@H](C)C(=O)N[C@@H]([C@@H](C)O)C(=O)N1)[C@@H](C)O)C(=O)N[C@@H](CC(C)C)C(=O)N1CCC[C@H]1C(=O)N1CCC[C@H]1C(=O)N[C@H](C(=O)N[C@@H](CC(N)=O)C(=O)N[C@H](C(=O)NCC(=O)N[C@@H](CO)C(=O)N[C@@H](CC(N)=O)C(=O)N[C@H](C(=O)N[C@@H](Cc1ccc(O)cc1)C(N)=O)[C@@H](C)O)C(C)C)[C@@H](C)O [Peptide 48, K(γE-C18diacid)[CNTATC]ATQRLANFLRHSS(Aib)NFGPILPPTNVGSNTY-amide] (H-K([γGlu-C18 diacid])CNTATCATQRLANFLRHSS[Aib]NFGPILPPTNVGSNTY-NH2; disulfide 2-7; N-terminus assumed) | 27.5 | 32.6 | 57.1 | >144 | 4.8
